Consider one substance from patent US7354991B2, “Peptides for the diagnosis of schizophrenia” (Yeda Research and Development Co. Ltd, priority 2001, dated 2008).

In experiment [1] the test system is autoantibodies in plasma samples from schizophrenic patients. Nature of the experiment: Enzyme immunoassay: binding of biotin-labeled peptide on streptavidine coated tubes to plasma of schizophrenic patients. Details: species or system human. The conditions noted are these: 39 schizophrenic patients; FIG. 3. How it is done: (§1) • 1. Patients and control persons—Thirty-nine schizophrenic patients participated in this study. The following parameters were recorded: gender, age, duration of schizophrenia, number of hospitalizations, years of education and the psychiatric status (PANSS). Fifty plasma samples were obtained from a local blood bank. • 2. Plasma—Venous blood was drawn with heparin as […] from patients and control subjects. Plasma was obtained after centrifugation (4000 g; 15 mins. 4° C.). • 3. Peptide synthesis and biotin labeling—The peptides were synthesized on an Abimed 522 at a 10 micromol scale by Eurosequence b.v., (Nijenborgh 4: 9747 AG Groningen; The Netherlands) and labeled at the amino terminal with biotin containing a six carbon spacer. Peptide purity was routinely assessed by RP-HPLC and, when considered necessary, by laser desorption mass spectroscopy. The peptides were routinely dissolved in 1 ml water/DMF/DMSO (1:1:1; v/v/v). • 4. […] The absorbence was read at 450 nm spectrophotometrically. […]
(§2) Therefore, an experiment was carried out with the biotin-LVVGLCK as follows: the peptide was biotin-labeled and coated onto streptavidine coated tubes as explained above. Plasma samples of 39 schizophrenic patients and 50 control non schizophrenic individuals were tested with the coated peptide and the level of binding was determined by the enzyme immunoassay described above.

In experiment [2] the test system is plasma samples from non schizophrenic individuals. Put plainly: Enzyme immunoassay: binding of biotin-labeled peptide on streptavidine coated tubes to control plasma. Also noted: species or system human. The conditions noted are these: 50 control individuals; FIG. 3. Here is the method: as §1, §2

With LVVGLCK, in experiment [1], the “level of binding, mean value and standard deviation, plasma of schizophrenic patients” value was found to be 1.47±0.65 O.D. Besides, the “level of binding, mean value and standard deviation, plasma of non schizophrenic individuals” value in experiment [2] was 0.46±0.21 O.D.
